In patent US6288277A, “Benzylamine and phenylethylamine derivatives, processes for preparing the same and their use as medicaments” (Boehringer Ingelheim Pharma KG, priority 1997, dated 2001):
Where a name gives a salt, the structure may show the parent alone.

Target: LTB4-receptor (Homo sapiens, UniProt Q15722)
Experiment: Ki (LTB4-receptor; tests as described in WO 93/16036, pages 15 to 17)
Type: binding

LTB4-receptor, sequence (Q15722 whole entry): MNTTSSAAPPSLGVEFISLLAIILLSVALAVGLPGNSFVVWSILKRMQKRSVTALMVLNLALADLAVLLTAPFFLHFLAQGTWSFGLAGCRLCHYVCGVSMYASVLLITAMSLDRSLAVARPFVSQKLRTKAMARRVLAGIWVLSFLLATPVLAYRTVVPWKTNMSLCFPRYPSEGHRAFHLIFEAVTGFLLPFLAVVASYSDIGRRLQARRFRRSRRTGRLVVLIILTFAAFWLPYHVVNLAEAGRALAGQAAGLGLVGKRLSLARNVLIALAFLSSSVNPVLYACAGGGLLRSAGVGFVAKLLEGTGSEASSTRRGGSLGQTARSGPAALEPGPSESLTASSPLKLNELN

Row | Ki | SMILES
1 | 16.2 nM | CC(C)(c1ccccc1)c1ccc(OCc2cccc(COc3ccc(CN)cc3)c2)cc1
2 | 13.8 nM | NCc1ccc(OCc2cccc(COc3cccc(C(=O)c4ccccc4)c3)c2)cc1
3 | 11.1 nM | NCc1ccc(OCc2cccc(COc3ccc(C4(c5ccc(O)cc5)CCC4)cc3)c2)cc1
4 | 21.5 nM | CC(c1ccc(O)cc1)c1ccc(OCc2cccc(COc3ccc(CN)cc3)c2)cc1 (stereo not drawn)
5 | 1.9 nM | NCc1ccc(OCc2cccc(COc3ccc(S(=O)(=O)c4ccc(O)cc4)cc3)c2)cc1
6 | 28.7 nM | NCc1ccc(OCc2cccc(COc3ccc(Sc4ccc(O)cc4)cc3)c2)cc1
7 | 1.6 nM | NCc1ccc(OCc2cccc(COc3ccc([S+]([O-])c4ccc(O)cc4)cc3)c2)cc1 (stereo not drawn)
8 | 27.9 nM | CC(C)(c1ccc(O)cc1)c1ccc(OCc2cccc(COc3ccc(CN)cc3)c2F)cc1
9 | 0.55 nM | CC(C)(c1ccc(OCc2cccc(COc3ccc(CN)cc3)c2)cc1)c1ccc(O[C@@H]2O[C@H](CO)[C@@H](O)[C@H](O)[C@H]2O)cc1
10 | 59.7 nM | NCc1ccc(OCc2cccc(COc3ccc(Oc4ccc(O)cc4)cc3)c2)cc1
11 | 32.5 nM | Cc1cc(C(C)(C)c2ccc(OCc3cccc(COc4ccc(CN)cc4)c3)c(C)c2)ccc1O
12 | 50.8 nM | CC(C)(c1ccc(O)cc1)c1ccc(C(C)(C)c2ccc(OCc3cccc(COc4ccc(CN)cc4)c3)cc2)cc1
13 | 14.9 nM | CCOC(=O)CCC(C)(c1ccc(O)cc1)c1ccc(OCc2cccc(COc3ccc(CN)cc3)c2)cc1 (stereo not drawn)
14 | 0.5 nM | CC(CCC(=O)O)(c1ccc(O)cc1)c1ccc(OCc2cccc(COc3ccc(CN)cc3)c2)cc1 (stereo not drawn)
15 | 11.4 nM | COC(=O)c1ccc(C(C)(C)c2ccc(OCc3cccc(COc4ccc(CN)cc4)c3)cc2)cc1
16 | 13.1 nM | CC(C)N(C(=O)c1ccc(C(C)(C)c2ccc(OCc3cccc(COc4ccc(CN)cc4)c3)cc2)cc1)C(C)C
17 | 263 nM | CCOC(=O)NCc1ccc(OCc2cccc(COc3ccc(C(C)(C)c4ccc(O)cc4)cc3)c2)cc1
18 | 2.85 nM | CCOC(=O)C(C)(c1ccc(O)cc1)c1ccc(OCc2cccc(COc3ccc(CN)cc3)c2)cc1 (stereo not drawn)
19 | 4.5 nM | CCOC(=O)NCC(C)(C)c1ccc(OCc2cccc(COc3ccc(CN)cc3)c2)cc1
20 | 67.3 nM | CC(C)(CN)c1ccc(OCc2cccc(COc3ccc(CN)cc3)c2)cc1
21 | 7.5 nM | CC(C)(C)Oc1ccc(OCc2cccc(COc3ccc(CN)cc3)c2)cc1
22 | 0.86 nM | CC(C)(c1ccc(OCc2cccc(COc3ccc(CN)cc3)c2)cc1)c1ccc(C(=O)N2CCCCC2)cc1
23 | 17.6 nM | CC(C)(c1ccccc1)c1ccc(OCc2cccc(COc3ccc(CN)cc3)c2)c(O)c1
24 | 21.9 nM | CC(C)(c1ccccc1)c1ccc(O)c(OCc2cccc(COc3ccc(CN)cc3)c2)c1
25 | 38.6 nM | NCc1ccc(OCc2cccc(COc3ccc(Cc4ccc(O)cc4)cc3)c2)cc1
26 | 21.8 nM | NCc1ccc(OCc2cccc(COc3ccc(C(c4ccc(O)cc4)(C(F)(F)F)C(F)(F)F)cc3)c2)cc1
27 | 10.6 nM | CC(C)(c1ccc(O)cc1F)c1ccc(OCc2cccc(COc3ccc(CN)cc3)c2)cc1F
28 | 2.4 nM | CC(C)(c1ccc(O)cc1)c1ccc(OCc2cccc(COc3ccc(CN)cc3)c2)c(O)c1
29 | 30.6 nM | CC(C)(c1ccccc1)c1ccc(OCc2cccc(COc3ccc(CCN)cc3)c2)cc1 [2-[4-[[3-[[4-[1-phenyl-1-methylethyl]phenoxy]methyl]phenyl]methoxy]]-ethylamine hydrochloride]
30 | 15.7 nM | CC(C)(c1ccc(O)cc1)c1ccc(OCc2cccc(COc3ccc(CN)cc3)c2)cc1 [4-[[3-[[4-[1-(4-Hydroxyphenyl)-1-methylethyl]phenoxy]methyl]phenyl]methoxy]-benzylamine hydrochloride]
